Experiments:
[1] = system: rhabdomyosarcoma cell line (NUTOS); experiment: Survival rate of confluent NUTOS cells 15 hours after adding anticancer agent (trypan blue count); type: cell-based, human; details: serum-free DMEM/F12, 15 hours, n=5, FIG. 1
Experimental: A rhabdomyosarcoma cell line (NUTOS) established from alveolar rhabdomyosarcoma developed in the tongue of a child was used. […] In FIG. 1, the horizontal axis represents the concentration (ng/ml) of the added anticancer agent and the longitudinal axis represents the survival rate (%) of the cells after 15 hours (n=5). 1. Cells were plated on a plate and cultured to a confluent state using a DMEM/F12 culture medium supplemented with 15% fetal bovine serum. 2. The culture medium was removed and replaced with a serum-free DMEM/F12 culture medium supplemented with a given amount of an anticancer agent, and the cells were cultured for 15 hours. 3. The culture medium was removed, and the cells were washed with Hanks' solution and detached with trypsin. The detached cells were transferred to a tube and centrifuged. 4. The supernatant was removed, and the cells were suspended in a given amount of a culture medium. 5. An aliquot of the cell suspension was taken and the same amount of trypan blue was added thereto. Then, the cells were counted using a hemocytometer.

[2] = system: rhabdomyosarcoma cell line (HUMENS); experiment: Survival rate of confluent HUMENS cells 15 hours after adding anticancer agent (trypan blue count); type: cell-based; details: FIG. 2
Experimental: 1. Cells were plated on a plate and cultured to a confluent state using a DMEM/F12 culture medium supplemented with 15% fetal bovine serum.
2. The culture medium was removed and replaced with a serum-free DMEM/F12 culture medium supplemented with a given amount of an anticancer agent, and the cells were cultured for 15 hours.
3. The culture medium was removed, and the cells were washed with Hanks' solution and detached with trypsin. The detached cells were transferred to a tube and centrifuged.
4. The supernatant was removed, and the cells were suspended in a given amount of a culture medium.
5. An aliquot of the cell suspension was taken and the same amount of trypan blue was added thereto. Then, the cells were counted using a hemocytometer.
The percentage of incorporation of a dye was counted 15 hours after adding an anticancer agent (s-PTX, s-CDDP, s-CBDCA, s-ADM, or s-CPA (all of which are in Example 8), PTX, CDDP, CBDCA, ADM, or CPA (all of which are in Comparative Example 2)) to confluent cells (HUMENS) in the same manner as in Example 7 or Comparative Example 1, except that a rhabdomyosarcoma cell line (HUMENS) established from alveolar rhabdomyosarcoma obtained from the mammary gland was used as the cells in place of NUTOS.

NUTOS cells = experiment: Incorporation of serotonin into NUTOS cells (culture medium level, anti-serotonin antibody immunostaining); type: cell-based, human; details: serotonin in fetal bovine serum added to culture medium
Experimental: When fetal bovine serum containing serotonin was added to a culture medium containing this NUTOS cell line, the amount of serotonin in the culture medium was decreased. […] The detailed mechanism of this incorporation has not been elucidated yet, and also the role of serotonin incorporated therein has not been elucidated yet.

## COc1cccc2c1C(=O)c1c(O)c3c(c(O)c1C2=O)C[C@@](O)(C(=O)CO)C[C@@H]3O[C@H]1C[C@H](N)[C@H](O)[C@H](C)O1.Cl [ADM, adriamycin]
[1]
  anticancer effect (survival rate of the cells after 15 hours): only a slight anticancer effect
[2]
  anticancer effect (survival rate of the cells after 15 hours): only a slight anticancer effect

## N.N.O=C([O-])C1(C(=O)[O-])CCC1.[Pt+2] [CBDCA, carboplatin]
[1]
  anticancer effect (survival rate of the cells after 15 hours): exhibited an anticancer effect by itself
[2]
  anticancer effect (survival rate of the cells after 15 hours): exhibited an anticancer effect by itself

## [NH2][Pt]([NH2])([Cl])[Cl] [CDDP, cisplatin]
[1]
  anticancer effect (survival rate of the cells after 15 hours): exhibited an anticancer effect by itself
[2]
  anticancer effect (survival rate of the cells after 15 hours): exhibited an anticancer effect by itself

## O=P1(N(CCCl)CCCl)NCCCO1 (centres unmarked) [CPA, cyclophosphamide]
[1]
  anticancer effect (survival rate of the cells after 15 hours): only a slight anticancer effect
[2]
  anticancer effect (survival rate of the cells after 15 hours): exhibited an anticancer effect by itself

## CC(=O)O[C@H]1C(=O)[C@@]2(C)[C@H]([C@H](OC(=O)c3ccccc3)[C@]3(O)C[C@H](OC(=O)[C@H](O)[C@@H](NC(=O)c4ccccc4)c4ccccc4)C(C)=C1C3(C)C)[C@]1(OC(C)=O)CO[C@@H]1C[C@@H]2O [PTX, paclitaxel]
[1]
  anticancer effect (survival rate of the cells after 15 hours): exhibited an anticancer effect by itself
[2]
  anticancer effect (survival rate of the cells after 15 hours): exhibited an anticancer effect by itself

## NCCc1c[nH]c2ccc(O)cc12 [serotonin]
NUTOS cells
  incorporation into NUTOS cells: specifically incorporated into the NUTOS cells
